ChEMBL document CHEMBL4483862, “Open-source discovery of chemical leads for next-generation chemoprotective antimalarials” (2018)

Test system: Plasmodium berghei
Test: Luciferase/luciferin-expressing antifolate-resistant parasites were used to infect a culture of HepG2 cells that were pre-incubated with compounds. Infected hepatocytes emit light due to the luciferase reaction. Assay results are presented as the percent inhibition of light emission compared to control. […]
Format: functional
Details: sporozoite; for IC90: read-out: LUCIFERASE INFECTION ASSAY - IC90

Cc1cc(NNC(=O)Nc2cccc(Cl)c2)nc2c1c(C)nn2C
IC50 (HEPG2TOX_HILL_SLOPE 1.19, HEPG2TOX_R_SQUARED 0.796, PBLUC_HILL_SLOPE 1.82, PBLUC_R_SQUARED 0.0269, read-out: LUCIFERASE INFECTION ASSAY - IC50): 5.86 µM
IC90: > 9.57 µM

CN(CCO)c1ccc(C(=O)c2ccc(N(C)CCO)cc2)cc1
IC50 (HEPG2TOX_HILL_SLOPE 1.17, HEPG2TOX_R_SQUARED 0.868, PBLUC_HILL_SLOPE 1.55, PBLUC_R_SQUARED 0.285, read-out: LUCIFERASE INFECTION ASSAY - IC50): 2.24 µM
IC90: 9.22 µM

c1cncc(-c2ccc3ncc(-c4cccnc4)n3n2)c1
IC50 (HEPG2TOX_HILL_SLOPE 1.17, HEPG2TOX_R_SQUARED 0.949, PBLUC_HILL_SLOPE 1.66, PBLUC_R_SQUARED 0.633, read-out: LUCIFERASE INFECTION ASSAY - IC50): 0.778 µM
IC90: 2.92 µM

CNC(=O)c1cccc(-c2ccc3ncc(-c4ccc(NC(C)=O)cc4)n3n2)c1
IC50 (HEPG2TOX_HILL_SLOPE 1.21, HEPG2TOX_R_SQUARED 0.751, PBLUC_HILL_SLOPE 4.52, PBLUC_R_SQUARED 0.725, read-out: LUCIFERASE INFECTION ASSAY - IC50): 1.62 µM
IC90: 2.63 µM

CN(C)c1ccc(CNc2ncnc3ccccc23)cc1
IC50 (HEPG2TOX_HILL_SLOPE 1.21, HEPG2TOX_R_SQUARED 0.974, PBLUC_HILL_SLOPE 1.4, PBLUC_R_SQUARED 0.594, read-out: LUCIFERASE INFECTION ASSAY - IC50): 4.35 µM
IC90: > 10 µM

CC(C)NC(=O)c1c(NC(=O)c2cccc(Cl)c2)nc2ccccn12
IC50 (HEPG2TOX_HILL_SLOPE 1.2, HEPG2TOX_R_SQUARED 0.976, PBLUC_HILL_SLOPE 4.43, PBLUC_R_SQUARED 0.437, read-out: LUCIFERASE INFECTION ASSAY - IC50): 1.35 µM
IC90: 2.22 µM

COC(=O)c1c(C)[nH]c(C(=O)C(C)OC(=O)c2ccccc2NS(=O)(=O)c2ccc(Br)s2)c1C (configuration not stated)
IC50 (HEPG2TOX_HILL_SLOPE 1.22, HEPG2TOX_R_SQUARED 0.375, PBLUC_HILL_SLOPE 2.55, PBLUC_R_SQUARED 0.409, read-out: LUCIFERASE INFECTION ASSAY - IC50): 7.98 µM
IC90: > 10 µM

COc1ccc(/C=C/C#N)c(Cl)c1OC
IC50 (HEPG2TOX_HILL_SLOPE 1.17, HEPG2TOX_R_SQUARED 0.985, PBLUC_HILL_SLOPE 2.95, PBLUC_R_SQUARED 0.12, read-out: LUCIFERASE INFECTION ASSAY - IC50): 11.3 µM
IC90: > 14.8 µM

CC(Nc1ncnc2scc(-c3ccccc3)c12)c1ccc(S(C)(=O)=O)cc1 (configuration not stated)
IC50 (HEPG2TOX_HILL_SLOPE 1.17, HEPG2TOX_R_SQUARED 0.977, PBLUC_HILL_SLOPE 2.44, PBLUC_R_SQUARED 0.865, read-out: LUCIFERASE INFECTION ASSAY - IC50): 2.89 µM
IC90: 7.11 µM

CCOc1ccc(CN(C)c2ncnc3sc(C)c(C)c23)cc1OC
IC50 (HEPG2TOX_HILL_SLOPE 1.19, HEPG2TOX_R_SQUARED 0.971, PBLUC_HILL_SLOPE 15.4, PBLUC_R_SQUARED 0.0404, read-out: LUCIFERASE INFECTION ASSAY - IC50): 3.16 µM
IC90: 3.65 µM

CCOC(=O)C1=C(CSc2nc3ccccc3c(=O)n2-c2ccc(OC(F)F)cc2)NC(=O)NC1C (configuration not stated)
IC50 (HEPG2TOX_HILL_SLOPE 1.17, HEPG2TOX_R_SQUARED 0.429, PBLUC_HILL_SLOPE 8.23, PBLUC_R_SQUARED 0.327, read-out: LUCIFERASE INFECTION ASSAY - IC50): 8.35 µM
IC90: > 10 µM

Cn1ccc2cc(-c3cn4c(-c5cccc(O)c5)cnc4cn3)ccc21
IC50 (HEPG2TOX_HILL_SLOPE 1.21, HEPG2TOX_R_SQUARED 0.948, PBLUC_HILL_SLOPE 1.63, PBLUC_R_SQUARED 0.761, read-out: LUCIFERASE INFECTION ASSAY - IC50): 0.805 µM
IC90: 3.11 µM

CN(C1CCCCC1)S(=O)(=O)c1cccc(C(=O)Nc2ccc(S(=O)(=O)NCc3ccco3)cc2)c1
IC50 (HEPG2TOX_HILL_SLOPE 1.16, HEPG2TOX_R_SQUARED 0.836, PBLUC_HILL_SLOPE 2.1, PBLUC_R_SQUARED 0.409, read-out: LUCIFERASE INFECTION ASSAY - IC50): 0.606 µM
IC90: 1.72 µM

Brc1ccc(-c2csc3ncnc(NCc4ccc(-n5ccnc5)nc4)c23)cc1
IC50 (HEPG2TOX_HILL_SLOPE 1.16, HEPG2TOX_R_SQUARED 0.868, read-out: LUCIFERASE INFECTION ASSAY - IC50): > 10 µM
IC90: > 10 µM

CCCC1(CCC)NC(=O)N(CC(=O)/N=c2\sc3ccccc3n2C)C1=O
IC50 (HEPG2TOX_HILL_SLOPE 1.17, HEPG2TOX_R_SQUARED 0.854, PBLUC_HILL_SLOPE 1.78, PBLUC_R_SQUARED 0.281, read-out: LUCIFERASE INFECTION ASSAY - IC50): 4.54 µM
IC90: > 10 µM

CSCC[C@H](NC(=O)CCN(c1cc(C)cc(C)c1)S(=O)(=O)c1ccc(Cl)cc1)c1nc2ccccc2[nH]1
IC50 (HEPG2TOX_HILL_SLOPE 1.18, HEPG2TOX_R_SQUARED 0.616, PBLUC_HILL_SLOPE 8.87, PBLUC_R_SQUARED 0.619, read-out: LUCIFERASE INFECTION ASSAY - IC50): 8.36 µM
IC90: > 10 µM

Cc1cc(C)n(-c2ccc(NC(=O)c3ccc(CN4CCCCC4)cc3)cn2)n1
IC50 (HEPG2TOX_HILL_SLOPE 1.19, HEPG2TOX_R_SQUARED 0.854, PBLUC_HILL_SLOPE 17.4, PBLUC_R_SQUARED 0.154, read-out: LUCIFERASE INFECTION ASSAY - IC50): 9.79 µM
IC90: > 10 µM

COc1ccc(-c2cnc3cnc(-c4ccc5c(ccn5C)c4)cn23)cn1
IC50 (HEPG2TOX_HILL_SLOPE 1.17, HEPG2TOX_R_SQUARED 0.992, PBLUC_HILL_SLOPE 12.5, PBLUC_R_SQUARED 0.775, read-out: LUCIFERASE INFECTION ASSAY - IC50): 1.02 µM
IC90: 1.22 µM

CNc1snc(C)c1C(=O)NCc1ccc(COCC(F)(F)F)cc1
IC50 (HEPG2TOX_HILL_SLOPE 1.16, HEPG2TOX_R_SQUARED 0.865, PBLUC_HILL_SLOPE 3.24, 27.9, PBLUC_R_SQUARED 0.892, 0.904, read-out: LUCIFERASE INFECTION ASSAY - IC50): 1.12 µM
IC90: 1.72 µM

COc1ccc(/C=C/C(=O)c2cc(Cl)c(OC)cc2OC)cc1O
IC50 (HEPG2TOX_HILL_SLOPE 1.17, HEPG2TOX_R_SQUARED 0.559, PBLUC_HILL_SLOPE 18.3, PBLUC_R_SQUARED 0.538, read-out: LUCIFERASE INFECTION ASSAY - IC50): 1.12 µM
IC90: 1.26 µM

Cn1ccc2cc(-c3cnc4cnc(-c5ccccc5)cn34)ccc21
IC50 (HEPG2TOX_HILL_SLOPE 1.21, HEPG2TOX_R_SQUARED 0.923, PBLUC_HILL_SLOPE 1.33, PBLUC_R_SQUARED 0.803, read-out: LUCIFERASE INFECTION ASSAY - IC50): 0.0465 µM
IC90: 0.242 µM

CC(=O)c1c(C)[nH]c(C(=O)OCC(=O)NC2CCCc3ccccc32)c1C (configuration not stated)
IC50 (HEPG2TOX_HILL_SLOPE 1.17, HEPG2TOX_R_SQUARED 0.444, read-out: LUCIFERASE INFECTION ASSAY - IC50): > 10 µM
IC90: > 10 µM

CSc1sc(C(=O)N/N=C/c2ccc(Cl)cc2)cc1S(=O)(=O)C(C)C
IC50 (HEPG2TOX_HILL_SLOPE 1.17, HEPG2TOX_R_SQUARED 0.979, PBLUC_HILL_SLOPE 3, PBLUC_R_SQUARED 0.696, read-out: LUCIFERASE INFECTION ASSAY - IC50): 2.77 µM
IC90: 5.75 µM

Cc1nc2c3ccccc3nc(SCC(=O)Nc3ccccc3)n2n1
IC50 (HEPG2TOX_HILL_SLOPE 1.21, HEPG2TOX_R_SQUARED 0.956, PBLUC_HILL_SLOPE 1.03, PBLUC_R_SQUARED 0.933, read-out: LUCIFERASE INFECTION ASSAY - IC50): 0.169 µM
IC90: 1.43 µM

Cc1cc(C(=O)Cn2cnc3ccccc3c2=O)c(C)n1-c1ccccc1
IC50 (HEPG2TOX_HILL_SLOPE 1.21, HEPG2TOX_R_SQUARED 0.806, PBLUC_HILL_SLOPE 1.3, PBLUC_R_SQUARED 0.604, read-out: LUCIFERASE INFECTION ASSAY - IC50): 2.96 µM
IC90: > 10 µM

O=C1C(=C2NC=C(c3ccc(Cl)cc3)O2)Sc2ncccc21
IC50 (HEPG2TOX_HILL_SLOPE 1.16, HEPG2TOX_R_SQUARED 0.581, PBLUC_HILL_SLOPE 117, PBLUC_R_SQUARED 0.316, read-out: LUCIFERASE INFECTION ASSAY - IC50): 1.66 µM
IC90: 1.69 µM

Cn1cc(-c2cn3c(-c4ccc5c(ccn5C)c4)cnc3cn2)cn1
IC50 (HEPG2TOX_HILL_SLOPE 1.22, HEPG2TOX_R_SQUARED 0.939, PBLUC_HILL_SLOPE 1.34, PBLUC_R_SQUARED 0.885, read-out: LUCIFERASE INFECTION ASSAY - IC50): 0.287 µM
IC90: 1.47 µM

CN1/C(=C\Sc2ccccc2[N+](=O)[O-])C(C)(C)c2ccccc21
IC50 (HEPG2TOX_HILL_SLOPE 1.18, HEPG2TOX_R_SQUARED 0.48, PBLUC_HILL_SLOPE 2.15, PBLUC_R_SQUARED 0.378, read-out: LUCIFERASE INFECTION ASSAY - IC50): 8.07 µM
IC90: > 10 µM

O=C(c1ccco1)N1CCN(c2ncnc3c2[nH]c2ccc(F)cc23)CC1
IC50 (HEPG2TOX_HILL_SLOPE 1.18, HEPG2TOX_R_SQUARED 0.668, PBLUC_HILL_SLOPE 1.45, PBLUC_R_SQUARED 0.295, read-out: LUCIFERASE INFECTION ASSAY - IC50): > 9.03 µM
IC90: > 9.03 µM

CN(C)C(=O)C1CCCN1c1ccc(C(=O)c2ccccc2)cc1[N+](=O)[O-] (configuration not stated)
IC50 (HEPG2TOX_HILL_SLOPE 1.22, HEPG2TOX_R_SQUARED 0.897, PBLUC_HILL_SLOPE 2.78, PBLUC_R_SQUARED 0.507, read-out: LUCIFERASE INFECTION ASSAY - IC50): 6.2 µM
IC90: > 10 µM

Cc1ccc(O)c(C(=O)c2c[nH]c(-c3nc4ccccc4[nH]3)c2)c1
IC50 (HEPG2TOX_HILL_SLOPE 1.19, HEPG2TOX_R_SQUARED 0.817, PBLUC_HILL_SLOPE 1.99, PBLUC_R_SQUARED 0.294, read-out: LUCIFERASE INFECTION ASSAY - IC50): 3.74 µM
IC90: > 10 µM
